Like-named read-outs stand apart in the source and are kept apart here.
Assays:
Chymotrypsin [1] = tested on: Chymotrypsin; set-up: method as in earlier work; conditions: Supplementary Table 5, Top 50 chymotrypsin inhibitors among Ahp-cyclodepsipeptides; cited from earlier work
Chymotrypsin [2] = target: T1, Chymotrypsin (Bos taurus, UniProt P00766); assay: Chymotrypsin inhibition, fluorogenic substrate assay (Suc-Ala-Ala-Pro-Phe-AMC); type: biochemical; conditions: for Mean (RFU/s): Chymotrypsin; for fold increase in potency towards chymotrypsin: molassamide B (6) compared to molassamide (5)
T1 construct: purchased Sigma-Aldrich

Elastase = target: T2, Elastase (Sus scrofa, UniProt P00772); assay: Elastase inhibition, fluorogenic substrate assay (MeOSuc-Ala-Ala-Pro-Val-AMC); type: biochemical, Sus domesticus; conditions: for IC50 / Mean (RFU/s): 40 min pre-incubation; for IC50: mean, n = 3; for Mean (RFU/s): Elastase
T2 construct: purchased Sigma-Aldrich
T2 sequence (P00772 27-266): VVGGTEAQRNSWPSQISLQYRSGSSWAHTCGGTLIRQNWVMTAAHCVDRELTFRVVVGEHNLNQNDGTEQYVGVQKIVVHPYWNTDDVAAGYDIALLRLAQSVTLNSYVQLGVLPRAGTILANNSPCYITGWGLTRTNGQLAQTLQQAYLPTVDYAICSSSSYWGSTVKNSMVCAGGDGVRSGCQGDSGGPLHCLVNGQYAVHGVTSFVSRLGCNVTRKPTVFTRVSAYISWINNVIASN

Proteinase K = target: T3, Proteinase K (Parengyodontium album, UniProt P06873); assay: Proteinase K inhibition, fluorogenic substrate assay (Suc-Ala-Ala-Pro-Phe-AMC); type: biochemical, Tritirachium album; conditions: for IC50 / Mean (RFU/s): 40 min pre-incubation; for IC50: mean, n = 3; for Mean (RFU/s): Proteinase K
T3 construct: purchased Roche
T3 sequence (P06873 106-384): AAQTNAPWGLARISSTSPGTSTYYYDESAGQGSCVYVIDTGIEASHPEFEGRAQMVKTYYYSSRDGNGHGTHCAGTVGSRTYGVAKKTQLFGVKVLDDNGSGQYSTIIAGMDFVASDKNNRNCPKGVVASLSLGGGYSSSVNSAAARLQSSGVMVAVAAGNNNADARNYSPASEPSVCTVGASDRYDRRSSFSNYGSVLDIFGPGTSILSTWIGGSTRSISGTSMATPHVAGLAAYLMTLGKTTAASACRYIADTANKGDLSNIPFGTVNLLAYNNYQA

[3] = 40 min pre-incubation, mean, n = 3, read-out: IC50 Chymotrypsin
[4] = inhibitor concentration 0.0508053 nM, 40 min pre-incubation
[5] = inhibitor concentration 0.152416 nM, 40 min pre-incubation
[6] = inhibitor concentration 0.457247 nM, 40 min pre-incubation
[7] = inhibitor concentration 1.37174 nM, 40 min pre-incubation
[8] = inhibitor concentration 4.11523 nM, 40 min pre-incubation
[9] = inhibitor concentration 12.3457 nM, 40 min pre-incubation
[10] = inhibitor concentration 37.037 nM, 40 min pre-incubation
[11] = inhibitor concentration 111.111 nM, 40 min pre-incubation
[12] = inhibitor concentration 333.333 nM, 40 min pre-incubation
[13] = inhibitor concentration 1000 nM, 40 min pre-incubation
[14] = inhibitor concentration 3000 nM, 40 min pre-incubation
[15] = Supplementary Table 5, compounds of this study, read-out: Chymotrypsin IC50
[16] = inhibitor concentration 0.0508053 nM
[17] = inhibitor concentration 0.152416 nM
[18] = inhibitor concentration 0.457247 nM
[19] = inhibitor concentration 1.37174 nM
[20] = inhibitor concentration 4.11523 nM
[21] = inhibitor concentration 12.3457 nM
[22] = inhibitor concentration 37.037 nM
[23] = inhibitor concentration 111.111 nM
[24] = inhibitor concentration 333.333 nM
[25] = inhibitor concentration 1000 nM
[26] = inhibitor concentration 3000 nM
[27] = molassamide B (6) compared to molassamide (5)

C/C=C1\NC(=O)[C@@H](NC(=O)[C@@H](NC(=O)[C@H](C)NC(=O)C/C(C)=C/Cl)[C@@H](C)CC)[C@@H](C)OC(=O)[C@H](C(C)C)NC(=O)[C@H](Cc2ccc(O)cc2)N(C)C(=O)[C@H](Cc2ccccc2)N2C(=O)[C@H](CC[C@H]2O)NC1=O [Tutuilamide A]
IC50 (Chymotrypsin [1]): 1000 nM

Loggerpeptin A
IC50 (Chymotrypsin [1]): 240 nM

CC[C@@H](C)[C@H]1NC(=O)[C@@H](Cc2ccccc2)N(C)C(=O)[C@@H](CC(C)C)N2C(=O)[C@@H](CC[C@@H]2O)NC(=O)[C@@H](Cc2ccc(O)cc2)NC(=O)[C@H](NC(=O)[C@H](CCC(N)=O)NC(=O)[C@H](O)Cc2ccc(O)cc2)[C@@H](C)OC1=O [Micropeptin DR1056]
IC50 (Chymotrypsin [1]): 1600 nM

Crocapeptin B
IC50 (Chymotrypsin [1]): 200 nM

CCCCCC(=O)N[C@@H](CCC(=O)O)C(=O)N[C@@H]1C(=O)N[C@@H](Cc2ccc(O)cc2)C(=O)N[C@H]2CC[C@@H](O)N(C2=O)[C@@H](CC(C)C)C(=O)N(C)[C@@H](Cc2ccc(O)cc2)C(=O)N[C@@H](C(C)C)C(=O)O[C@@H]1C [Micropeptin E]
IC50 (Chymotrypsin [1]): 1000 nM

C/C=C1\NC(=O)[C@@H](NC(=O)[C@@H](NC(=O)[C@H](C)NC(=O)CCC)[C@@H](C)O)[C@@H](C)OC(=O)[C@H](C(C)C)NC(=O)[C@H](Cc2ccc(O)c(Br)c2)N(C)C(=O)[C@H](Cc2ccccc2)N2C(=O)[C@H](CC[C@H]2O)NC1=O [Molassamide B, molassamide B]
IC50 (Chymotrypsin [2]; [3]): 24.6 nM | Mean (RFU/s) (Chymotrypsin [2]; [4]): 5.208 RFU/s | Mean (RFU/s) (Chymotrypsin [2]; [5]): 5.061 RFU/s | Mean (RFU/s) (Chymotrypsin [2]; [6]): 5.116 RFU/s | Mean (RFU/s) (Chymotrypsin [2]; [7]): 5.104 RFU/s | Mean (RFU/s) (Chymotrypsin [2]; [8]): 4.681 RFU/s | Mean (RFU/s) (Chymotrypsin [2]; [9]): 3.888 RFU/s | Mean (RFU/s) (Chymotrypsin [2]; [10]): 1.754 RFU/s | Mean (RFU/s) (Chymotrypsin [2]; [11]): 0.844 RFU/s | Mean (RFU/s) (Chymotrypsin [2]; [12]): 0.3123 RFU/s | Mean (RFU/s) (Chymotrypsin [2]; [13]): 0.1157 RFU/s | Mean (RFU/s) (Chymotrypsin [2]; [14]): 0 RFU/s | IC50 (Chymotrypsin [2]; [15]): 24.7 nM | fold increase in potency towards chymotrypsin (Chymotrypsin [2]): thirtyfive | fold increase in potency towards chymotrypsin (Chymotrypsin [2]; listed as 6): 35 fold | IC50 (Elastase): 11.7 nM | Mean (RFU/s) (Elastase; [16]): 0.846 RFU/s | Mean (RFU/s) (Elastase; [17]): 0.8437 RFU/s | Mean (RFU/s) (Elastase; [18]): 0.8327 RFU/s | Mean (RFU/s) (Elastase; [19]): 0.7837 RFU/s | Mean (RFU/s) (Elastase; [20]): 0.677 RFU/s | Mean (RFU/s) (Elastase; [21]): 0.418 RFU/s | Mean (RFU/s) (Elastase; [22]): 0.1113 RFU/s | Mean (RFU/s) (Elastase; [23]): 0.024 RFU/s | Mean (RFU/s) (Elastase; [24]): 0 RFU/s | Mean (RFU/s) (Elastase; [25]): 0 RFU/s | Mean (RFU/s) (Elastase; [26]): 0 RFU/s | fold increase in potency towards elastase (Elastase; [27]): three | IC50 (Proteinase K): 5.42 nM | Mean (RFU/s) (Proteinase K; [16]): 6.3 RFU/s | Mean (RFU/s) (Proteinase K; [17]): 6.284 RFU/s | Mean (RFU/s) (Proteinase K; [18]): 6.22 RFU/s | Mean (RFU/s) (Proteinase K; [19]): 5.564 RFU/s | Mean (RFU/s) (Proteinase K; [20]): 3.825 RFU/s | Mean (RFU/s) (Proteinase K; [21]): 1.43 RFU/s | Mean (RFU/s) (Proteinase K; [22]): 0.3433 RFU/s | Mean (RFU/s) (Proteinase K; [23]): 0.1 RFU/s | Mean (RFU/s) (Proteinase K; [24]): 0.03367 RFU/s | Mean (RFU/s) (Proteinase K; [25]): 0 RFU/s | Mean (RFU/s) (Proteinase K; [26]): 0 RFU/s | fold increase in potency towards proteinase K (Proteinase K; [27]): four

CC=C1NC(=O)[C@@H](NC(=O)[C@@H](NC(=O)[C@@H]2CCCN2C(=O)CCC)[C@@H](C)OC(=O)C2CCCN2C(=O)CCC)[C@@H](C)OC(=O)[C@H](C(C)C)NC(=O)[C@H](Cc2ccc(O)cc2)N(C)C(=O)[C@H](Cc2ccccc2)N2C(=O)[C@H](CC[C@H]2O)NC1=O (stereo partly drawn) [Rivulariapeptolide 1155, rivulariapeptolide 1155]
IC50 (Chymotrypsin [2]; [3]): 41.8 nM | Mean (RFU/s) (Chymotrypsin [2]; [4]): 5.293 RFU/s | Mean (RFU/s) (Chymotrypsin [2]; [5]): 5.198 RFU/s | Mean (RFU/s) (Chymotrypsin [2]; [6]): 5.411 RFU/s | Mean (RFU/s) (Chymotrypsin [2]; [7]): 5.774 RFU/s | Mean (RFU/s) (Chymotrypsin [2]; [8]): 4.968 RFU/s | Mean (RFU/s) (Chymotrypsin [2]; [9]): 4.399 RFU/s | Mean (RFU/s) (Chymotrypsin [2]; [10]): 2.874 RFU/s | Mean (RFU/s) (Chymotrypsin [2]; [11]): 1.339 RFU/s | Mean (RFU/s) (Chymotrypsin [2]; [12]): 0.494 RFU/s | Mean (RFU/s) (Chymotrypsin [2]; [13]): 0.1737 RFU/s | Mean (RFU/s) (Chymotrypsin [2]; [14]): 0 RFU/s | IC50 (Chymotrypsin [2]; [15]): 41.8 nM | IC50 (Elastase): 4.94 nM | Mean (RFU/s) (Elastase; [16]): 0.9773 RFU/s | Mean (RFU/s) (Elastase; [17]): 0.8963 RFU/s | Mean (RFU/s) (Elastase; [18]): 0.839 RFU/s | Mean (RFU/s) (Elastase; [19]): 0.7733 RFU/s | Mean (RFU/s) (Elastase; [20]): 0.5503 RFU/s | Mean (RFU/s) (Elastase; [21]): 0.1703 RFU/s | Mean (RFU/s) (Elastase; [22]): 0.054 RFU/s | Mean (RFU/s) (Elastase; [23]): 0 RFU/s | Mean (RFU/s) (Elastase; [24]): 0 RFU/s | Mean (RFU/s) (Elastase; [25]): 0 RFU/s | Mean (RFU/s) (Elastase; [26]): 0 RFU/s | IC50 (Proteinase K): 56.5 nM | Mean (RFU/s) (Proteinase K; [16]): 6.603 RFU/s | Mean (RFU/s) (Proteinase K; [17]): 6.245 RFU/s | Mean (RFU/s) (Proteinase K; [18]): 6.403 RFU/s | Mean (RFU/s) (Proteinase K; [19]): 6.159 RFU/s | Mean (RFU/s) (Proteinase K; [20]): 6.088 RFU/s | Mean (RFU/s) (Proteinase K; [21]): 5.497 RFU/s | Mean (RFU/s) (Proteinase K; [22]): 4.358 RFU/s | Mean (RFU/s) (Proteinase K; [23]): 1.504 RFU/s | Mean (RFU/s) (Proteinase K; [24]): 0.363 RFU/s | Mean (RFU/s) (Proteinase K; [25]): 0.09033 RFU/s | Mean (RFU/s) (Proteinase K; [26]): 0.027 RFU/s

CC=C1NC(=O)[C@@H](NC(=O)[C@@H](NC(=O)[C@@H]2CCCN2C(=O)CCC)[C@@H](C)O)[C@@H](C)OC(=O)[C@H](C(C)C)NC(=O)[C@H](Cc2ccc(O)cc2)N(C)C(=O)[C@H](Cc2ccccc2)N2C(=O)[C@H](CC[C@H]2O)NC1=O [Rivulariapeptolide 988, rivulariapeptolide 988]
IC50 (Chymotrypsin [2]; [3]): 95.5 nM | Mean (RFU/s) (Chymotrypsin [2]; [4]): 4.956 RFU/s | Mean (RFU/s) (Chymotrypsin [2]; [5]): 4.945 RFU/s | Mean (RFU/s) (Chymotrypsin [2]; [6]): 5.008 RFU/s | Mean (RFU/s) (Chymotrypsin [2]; [7]): 5.099 RFU/s | Mean (RFU/s) (Chymotrypsin [2]; [8]): 4.694 RFU/s | Mean (RFU/s) (Chymotrypsin [2]; [9]): 4.587 RFU/s | Mean (RFU/s) (Chymotrypsin [2]; [10]): 3.41 RFU/s | Mean (RFU/s) (Chymotrypsin [2]; [11]): 2.381 RFU/s | Mean (RFU/s) (Chymotrypsin [2]; [12]): 1.135 RFU/s | Mean (RFU/s) (Chymotrypsin [2]; [13]): 0.4203 RFU/s | Mean (RFU/s) (Chymotrypsin [2]; [14]): 0.1363 RFU/s | IC50 (Chymotrypsin [2]; [15]): 95.5 nM | IC50 (Elastase): 15.3 nM | Mean (RFU/s) (Elastase; [16]): 0.804 RFU/s | Mean (RFU/s) (Elastase; [17]): 0.8127 RFU/s | Mean (RFU/s) (Elastase; [18]): 0.808 RFU/s | Mean (RFU/s) (Elastase; [19]): 0.7693 RFU/s | Mean (RFU/s) (Elastase; [20]): 0.661 RFU/s | Mean (RFU/s) (Elastase; [21]): 0.463 RFU/s | Mean (RFU/s) (Elastase; [22]): 0.2057 RFU/s | Mean (RFU/s) (Elastase; [23]): 0.065 RFU/s | Mean (RFU/s) (Elastase; [24]): 0.018 RFU/s | Mean (RFU/s) (Elastase; [25]): 0 RFU/s | Mean (RFU/s) (Elastase; [26]): 0 RFU/s | IC50 (Proteinase K): 85.5 nM | Mean (RFU/s) (Proteinase K; [16]): 6.083 RFU/s | Mean (RFU/s) (Proteinase K; [17]): 6.104 RFU/s | Mean (RFU/s) (Proteinase K; [18]): 6.172 RFU/s | Mean (RFU/s) (Proteinase K; [19]): 5.959 RFU/s | Mean (RFU/s) (Proteinase K; [20]): 5.86 RFU/s | Mean (RFU/s) (Proteinase K; [21]): 5.64 RFU/s | Mean (RFU/s) (Proteinase K; [22]): 4.799 RFU/s | Mean (RFU/s) (Proteinase K; [23]): 2.395 RFU/s | Mean (RFU/s) (Proteinase K; [24]): 0.4403 RFU/s | Mean (RFU/s) (Proteinase K; [25]): 0.07367 RFU/s | Mean (RFU/s) (Proteinase K; [26]): 0.022 RFU/s
